In the NIST ThermoML archive (doi:10.1016/j.jct.2016.03.030):
± gives the expanded uncertainty stated by the source.

Experiment: xn = mol fraction of the nth substance listed
Settings: 100 kPa, Liquid; for viscosity: Falling or rolling sphere viscometry; for mass density: Vibrating tube method

CCCC[N+]1(C)CCOCC1.[Br-] [4-butyl-4-methylmorpholinium bromide] + O
Settings	mass density, 298.15 K [kg/m3]	mass density, 303.15 K [kg/m3]	mass density, 308.15 K [kg/m3]	mass density, 313.15 K [kg/m3]	mass density, 318.15 K [kg/m3]	viscosity, 298.15 K [mPa·s]	viscosity, 303.15 K [mPa·s]	viscosity, 308.15 K [mPa·s]	viscosity, 313.15 K [mPa·s]	viscosity, 318.15 K [mPa·s]
x1 = 0.0017	1002.2 ± 1.2	1000.7 ± 1.2	999.1 ± 1.2	997.2 ± 1.2	995.2 ± 1.2	–	–	–	–	–
x1 = 0.0033	1007.1 ± 1.2	1005.6 ± 1.2	1003.9 ± 1.2	1002 ± 1.2	999.9 ± 1.2	–	–	–	–	–
x1 = 0.0066	1016.8 ± 1.2	1015.2 ± 1.2	1013.4 ± 1.2	1011.4 ± 1.1	1009.3 ± 1.1	–	–	–	–	–
x1 = 0.0088	1022.9 ± 1.1	1021.3 ± 1.1	1019.5 ± 1.1	1017.4 ± 1.1	1015.3 ± 1.1	–	–	–	–	–
x1 = 0.0167	1043.3 ± 1.1	1041.5 ± 1.1	1039.5 ± 1.1	1037.3 ± 1.1	1034.9 ± 1.1	–	–	–	–	–
x1 = 0.034	1081.4 ± 1.1	1079.1 ± 1.1	1076.7 ± 1.1	1074.2 ± 1.1	1071.5 ± 1.1	–	–	–	–	–
x1 = 0.0363	1086 ± 1.1	1083.7 ± 1.1	1081.3 ± 1.1	1078.7 ± 1.1	1076 ± 1.1	1.96 ± 0.2	1.715 ± 0.17	1.5 ± 0.15	1.323 ± 0.13	1.175 ± 0.12
x1 = 0.0601	1125.3 ± 1	1122.6 ± 1	1119.7 ± 1	1116.8 ± 1	1113.8 ± 1	3.204 ± 0.32	2.745 ± 0.28	2.367 ± 0.24	2.061 ± 0.21	1.81 ± 0.18
x1 = 0.0988	1170.8 ± 1	1167.7 ± 1	1164.5 ± 1	1161.3 ± 1	1158 ± 1	6.179 ± 0.62	5.16 ± 0.52	4.353 ± 0.44	3.716 ± 0.37	3.204 ± 0.32
x1 = 0.1242	1192 ± 1	1188.7 ± 1	1185.4 ± 1	1182.1 ± 1	1178.7 ± 1	9.576 ± 0.96	7.888 ± 0.79	6.566 ± 0.66	5.497 ± 0.55	4.65 ± 0.47
x1 = 0.154	1211.4 ± 1.1	1208.1 ± 1.1	1204.7 ± 1	1201.3 ± 1	1197.9 ± 1	15.07 ± 1.5	12.19 ± 1.2	9.969 ± 1	8.279 ± 0.83	6.951 ± 0.7
x1 = 0.2027	1234.7 ± 1.1	1231.3 ± 1.1	1227.9 ± 1.1	1224.5 ± 1.1	1221.1 ± 1.1	32.61 ± 3.3	25.31 ± 2.5	20 ± 2	16.07 ± 1.6	13.12 ± 1.3
x1 = 0.2383	1247.4 ± 1.2	1244 ± 1.2	1240.7 ± 1.2	1237.3 ± 1.1	1233.9 ± 1.1	57.4 ± 5.8	42.75 ± 4.3	32.82 ± 3.3	25.69 ± 2.6	20.44 ± 2.1
x1 = 0.2569	1252.8 ± 1.2	1249.4 ± 1.2	1246.1 ± 1.2	1242.7 ± 1.2	1239.3 ± 1.2	81.23 ± 8.2	60.27 ± 6.1	45.77 ± 4.6	35.46 ± 3.6	28.04 ± 2.8
x1 = 0.3007	1263.9 ± 1.3	1260.5 ± 1.3	1257.2 ± 1.3	1253.9 ± 1.3	1250.6 ± 1.3	159.1 ± 17	113.5 ± 12	82.89 ± 8.4	62.18 ± 6.2	47.76 ± 4.8
